Data: the NIST ThermoML archive (doi:10.1021/je050294+)
± gives the expanded uncertainty stated by the source.

Settings: 101.33 kPa, Liquid; for speed of sound: Linear variable-path acoustic interferometer

Row | SMILES | mass density (283.15 K) [kg/m3] | speed of sound (283.15 K) [m/s] | mass density (298.15 K) [kg/m3] | speed of sound (298.15 K) [m/s] | mass density (313.15 K) [kg/m3] | speed of sound (313.15 K) [m/s]
1 | CCC(C)O (stereo not drawn) [butan-2-ol] | 815.11 ± 0.59 | 1266.6 ± 1.7 | 803 ± 0.6 | 1212.4 ± 1.7 | 790.06 ± 0.61 | 1158 ± 1.7
2 | CCCCO [butan-1-ol] | 817.48 ± 0.23 | 1292.2 ± 1.4 | 806.17 ± 0.23 | 1240.7 ± 1.4 | 794.51 ± 0.24 | 1191.4 ± 1.4
3 | C=C1CCC2CC1C2(C)C (stereo not drawn) [β-pinene] | 878.97 ± 0.55 | 1355.9 ± 1.8 | 866.99 ± 0.55 | 1295 ± 1.8 | 854.89 ± 0.56 | 1237.4 ± 1.7
